US10889628B2, “Optogenetic inhibition of overactive neuronal activity” (Emory University, priority 2013, dated 2021)

Assays:
neuron = experiment: Inhibition of evoked spikes in a neuron expressing eNpHR3.0-Nanolantern; assay type: cell-based; settings: CTZ added
cortical neuron cultures = experiment: Inhibition of evoked activity (action potential trains evoked by current injection) in cortical neuron cultures; assay type: cell-based; settings: FIG. 5
Description: Trains of action potentials were evoked by 30 pA current injections.
Simultaneous patch clamp studies are conducted to determine cellular responses in (1) cells expressing both opsin and luciferase (i.e. both components in cis) and (2) cells expressing […] (i.e. both components in trans). As an alternative to co-infection, one can also deliver luciferase and inhibitory opsin together as a fusion protein. Various molecular strategies can also be employed (such as adding dimerizing or transmembrane domains) to facilitate co-localization of the luciferase and inhibitory opsin to the cell membrane.

Row | Compound | luminescence signal during inhibition of evoked activity (neuron; FIG. 8 (top)) | evoked action potentials after CTZ (neuron; sub-threshold depolarizing current injection, FIG. 8) | effect on firing rate in control (uninfected) neurons (cortical neuron cultures)
1 | eNpHR3.0-Nanolantern: Fusion cassette of enhanced halorhodopsin eNpHR3.0 and Nanolantern, amino acid sequence SEQ ID NO: 11 | increase in luminescence signal | completely attenuate evoked action potentials | –
2 | Oc1ccc(Cc2nc3c(Cc4ccccc4)nc(-c4ccc(O)cc4)cn3c2O)cc1 [CTZ, Coelenterazine, reference compound] | – | – | did not have any significant effect
